Measurements reported in ChEMBL document CHEMBL1128841, “Purification of pig and rat liver squalene epoxidase by affinity chromatography” (Bioorg Med Chem Lett, 1995).

Biological target: Squalene monooxygenase (Rattus norvegicus, UniProt P52020)
Test: The compound was tested for its inhibitory activity against rat Squalene epoxidase

Sequence of Squalene monooxygenase (P52020 whole entry): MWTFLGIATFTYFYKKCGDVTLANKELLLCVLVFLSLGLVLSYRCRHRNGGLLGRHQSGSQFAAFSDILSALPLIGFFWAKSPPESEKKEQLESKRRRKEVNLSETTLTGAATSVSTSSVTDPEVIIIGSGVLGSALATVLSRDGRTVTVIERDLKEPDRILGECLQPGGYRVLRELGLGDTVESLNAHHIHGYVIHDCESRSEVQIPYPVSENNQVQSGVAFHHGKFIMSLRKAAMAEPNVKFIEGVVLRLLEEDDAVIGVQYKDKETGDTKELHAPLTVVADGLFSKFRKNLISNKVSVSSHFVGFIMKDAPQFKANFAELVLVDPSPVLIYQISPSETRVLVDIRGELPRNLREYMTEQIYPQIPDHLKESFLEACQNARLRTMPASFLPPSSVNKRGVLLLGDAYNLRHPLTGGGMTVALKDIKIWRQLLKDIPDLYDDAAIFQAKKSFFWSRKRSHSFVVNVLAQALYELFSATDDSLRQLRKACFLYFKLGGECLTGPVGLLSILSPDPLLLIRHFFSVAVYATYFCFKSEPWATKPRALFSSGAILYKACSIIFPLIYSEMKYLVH

IC50: 1000 nM
Structure (SMILES): CNCCC/C(C)=C/CC/C(C)=C/CC/C=C(\C)CC/C=C(\C)CCCNCCCCCCN
